This note sets out measurements from patent publication US11286278B2, “DPEP-1 binding agents and methods of use” (Arch Biopartners, Inc., priority 2018, dated 2022).

In assay [1] the target is T1, DPEP1 (Homo sapiens, UniProt P16444).
T1 sequence (P16444 17-385): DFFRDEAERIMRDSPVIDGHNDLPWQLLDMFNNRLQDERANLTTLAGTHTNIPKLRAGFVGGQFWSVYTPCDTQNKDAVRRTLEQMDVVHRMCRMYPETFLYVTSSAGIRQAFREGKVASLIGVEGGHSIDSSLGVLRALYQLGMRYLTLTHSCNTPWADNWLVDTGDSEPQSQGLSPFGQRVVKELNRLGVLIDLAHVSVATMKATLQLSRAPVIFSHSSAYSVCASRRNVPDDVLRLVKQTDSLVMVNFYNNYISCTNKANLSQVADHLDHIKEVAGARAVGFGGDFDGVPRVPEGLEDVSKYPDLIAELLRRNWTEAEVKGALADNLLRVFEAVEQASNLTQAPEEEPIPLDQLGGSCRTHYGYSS
Description: Phage hit binding to DPEP1 transfected Cos 1 cells. Also on record: expressed in transfected cells; host or cells: Cos-1. To be noted: 10^8 pfu test phage, backscreen DPEP1 vs DPEP2. The method, then: The Ph.D.-12 library was first subtracted 3× against DPEP2 (Creative Biomart; DPEP2-8611H) linked to agarose beads (10 uL of DPEP-agarose in 100 uL Luria broth and 4.5×10^9 pfu of Ph.D.-12 library), wherein the phage remaining in the supernatant was retained, and those that stuck to the subtraction beads were discarded. Second, the library was selected against DPEP1-agarose beads, wherein the phage remaining in the supernatant were discarded and those binding to DPEP1-agarose pellet were retained. The pellet was washed 3× in PBS, then transferred to phage host bacterial culture (ER 2738) to amplify the bound phage, which were then precipitated as per manufacturer's protocol. The recovered phage were then used to repeat the subtraction and selection steps. […] Each plaque was amplified separately in liquid bacterial host culture. […] DNA inserts were translated to the expected protein and sorted to assess the number of repeating sequences. […]
In FIG. 19B, Cos1 cells were transiently transfected with plasmids corresponding to human DPEP1 or DPEP2 (Lipofectamine 2000) 24 hrs prior to plating on collagen-coated (PureCol; Type I collagen from bovine tendon) coverslips. One day later cells were incubated with 10^8 pfu test phage, which were then detected by anti-M13 rabbit serum (in house) with anti-rabbit Alexa 568 secondary. […]

The test system of assay [2] is monocyte adhesion in kidney. Description: Endotoxemia induced kidney inflammation, monocyte adhesion by multiphoton microscopy. It counts as in vivo, mouse. The following applies: LysM gfp/gfp mice, LPS O111:B4 5 mg/kg i.v., 4 hours post LPS, peptide pretreatment. The protocol: HEK293T cells were transfected with pcDNA vector containing human DPEP1 via Lipofectamine 2000 as per manufacturer protocol. Transfected cells were positively selected for using geneticin resistance and subcloned to generate stably transfected DPEP1 clones. Human renal tubular epithelial cells (hTEC) were isolated and cultured from human kidney nephrectomies. For immunocytochemistry, cells were cultured on collagen coated glass coverslips and fixed by 4% paraformaldehyde. Fixed cells were incubated with biotinylated LSALT peptides (50 μM) with various modifications (glycine linkers and/or amidation) for 1 hour at 37° C. before PBS washes. Bound biotinylated peptide was detected via secondary streptavidin fluorescent conjugate (30 min. incubation at 37° C.) and washed with PBS. […] Bound biotinylated peptide was detected via secondary streptavidin fluorescent conjugate (30 min. incubation at 37° C.) and washed with PBS. Peptide binding was analyzed via flow cytometer. […] Inflammation was quantified by manual counting of monocyte adhesion in single microscopy fields (n=3-6 fields/group; *:p=0.02).
Plasma was separated for each sample and phosphoric acid added to stabilize peptide at each timepoint. Samples were assessed for LSALT and its' metabolites using LC/MS. […] Peptide binding was analyzed via flow cytometer. […]

Assay [3] relates to LPS activated endothelial cells (HLMVEC). In words: Static neutrophil adhesion assay to LPS activated endothelial cells (HLMVEC). The format is cell-based. The following applies: human neutrophils, peptides at 100 uM or antibody at 13 ug/mL, LPS 1 ug/mL. The method, then:
(§1) In the top panel, 96-well nickel-coated plates were coated with nothing or his-tagged recombinant human DPEP1 (9 pmol/well in PBS, incubated for 1 hr at room temp), washed out 3× with PBS +0.05% Tween 20, and blocked for 1 hr at room temp with cell culture media (Cell Applications Inc. Cat#111-500). Freshly isolated human neutrophils were added to the wells at 5×10^4/mL, 100 uL volume, with the indicated peptides at 0.45uM. After 30 minutes at 37° C., wells were washed out 3× with PBS, and fixed with 3.7% formaldehyde in PBS. Two fields-of-view were photographed at 4× magnification and all the cells counted were recorded for each well, done in triplicate. In the middle panel, Cos1 cells were transfected with an empty vector (Mock) or a vector encoding wild type human DPEP1, two days prior. One day prior, transfected cells were plated at near confluency in a 24-well plate. On the day of the experiment, freshly isolated human neutrophils were added to the wells at 1×10^5/mL, 0.5mL volume, with the indicated peptides at 100 uM. After 30 minutes at 37° C., wells were washed out 3× with culture media, then fixed in 3.7% formaldehyde in PBS. Five fields-of-view were photographed at 20× magnification and averaged for each well, done in triplicate. In the bottom panel, two days prior, 24-well plates were coated with Attachment Factor Solution (Cell Applications Inc. Cat#123-500). […]

Assay [4] has as its system Cos 1 transfected cells (human DPEP1). In words: Static neutrophil adhesion assay to DPEP1 transfected Cos1 cells. It counts as cell-based. The following applies: human neutrophils, peptides at 100 uM, 30 minutes. The method, then: as §1
Assay [5] deals with T1, DPEP1. In words: Static neutrophil adhesion assay to recombinant hDPEP1. Also noted: purchased Creative Biomart DPEP1-77H. The following applies: human neutrophils, peptides at 0.45uM, 30 minutes. The format is cell-based. The method, then: as §1

As for KHMHWHPPALNT, on DPEP1 [1], the “phage binding to DPEP1 transfected cells” value is given as “brightest binding to DPEP1 transfected cells”.
With “GGGLSALTPSPSWLKYKAL [Peptide G2, tri-glycine LSALT (G2)]”, in assay [2], the “endotoxemia induced kidney inflammation (monocyte adhesion)” value is “can inhibit endotoxemia induced kidney inflammation”.
Take HIPKSPIQIPII: the “neutrophil adhesion to LPS activated endothelial cells (HLMVEC)” value in assay [3] is “able to inhibit neutrophil adhesion”.
Turning to KHMHWHPPALNT [NeoH], the “neutrophil adhesion to DPEP1 transfected Cos 1 cells” value in assay [4] is reported as “able to inhibit neutrophil adhesion”. The “neutrophil adhesion to recombinant hDPEP1” value with DPEP1 [5] was “able to inhibit neutrophil adhesion”. Moreover, the “neutrophil adhesion to LPS activated endothelial cells (HLMVEC)” value in assay [3] is “able to inhibit neutrophil adhesion”.
